Test results as given in patent US20220009910A1, “TYROSINE KINASE 2 INHIBITORS, PREPARATION METHODS AND MEDICINAL USES THEREOF” (Eternity Bioscience Inc., priority 2020, published 2022).

Key:
[1] = test system: Tyk2-mediated, IL23-induced STAT3 phosphorylation in human Kit225 T cell line; experiment: IL-23_Kit225 T Cell Assay (phosphorylated-STAT3, AlphaLISA); assay type: cell-based; settings: Kit225 cells, compound 1 hour, human recombinant IL-23 20 minutes, pSTAT3
Description: (§1) Kit225 cells (licensed from Professor Toshiyuki Hori, Ritsumeikan University, Japan) were seeded in 384-well plate at a density of 1×10^5 cells/well in 4 μL Hank's Balanced Salt Solution (HBSS, Gibco), and incubated for 2 hours in a humidified, 5% CO2 cell culture incubator at 37° C. The cells were treated with serial diluted compounds for 1 hour and stimulated with human recombinant IL-23 (R&D Systems) for 20 minutes. The treated cells were then lysed and cellular phosphorylated-STAT3 levels were measured by AlphaLISA (PerkinElmer) according to the manufacture's instructions. Inhibition data were calculated by comparison to vehicle control wells for 0% inhibition and non-stimulated control wells for 100% inhibition. Dose response curves were then generated to determine the concentration required to suppress 50% of cellular response (IC50) as derived by non-linear regression analysis using GraphPad Prism.

Tyk2 JH2 Pseudokinase = biological target: T1, Tyk2 JH2 Pseudokinase (Homo sapiens, UniProt P29597); experiment: KdELECT Competition Binding Assay; settings: 11-point 3-fold dilution series, qPCR readout
T1 construct: purchased Eurofins DiscoverX Corporation (CRO); host or cells: E. coli BL21-derived (T7 phage) or HEK-293
Description: The KdELECT Competition Binding Assay is performed by a CRO, Eurofins DiscoverX Corporation following the established standard protocol (DiscoverX, San Diego, Calif.). Briefly, Kinase-tagged T7 phage strains were prepared in an E. coli host derived from the BL21 strain. E. coli were grown to log-phase and infected with T7 phage and incubated with shaking at 32° C. until lysis. The lysates were centrifuged and filtered to remove cell debris. The remaining kinases were produced in HEK-293 cells and subsequently tagged with DNA for qPCR detection. Streptavidin-coated magnetic beads were treated with biotinylated small molecule ligands for 30 minutes at room temperature to generate affinity resins for kinase assays. The liganded beads were blocked with excess biotin and washed with blocking buffer (SeaBlock (Pierce), 1% BSA, 0.05% Tween 20, 1 mM DTT) to remove unbound ligand and to reduce nonspecific binding. Binding reactions were assembled by combining kinases, liganded affinity beads, and test compounds in 1× binding buffer (20% SeaBlock, 0.17×PBS, 0.05% Tween 20, 6 mM DTT). Test compounds were prepared as 111-fold stocks in 100% DMSO. Kds were determined using an 11-point 3-fold compound dilution series with three DMSO control points. All compounds for Kd measurements are distributed by acoustic transfer (non-contact dispensing) in 100% DMSO. The compounds were then diluted directly into the assays such that the final concentration of DMSO was 0.9%. All reactions performed in polypropylene 384-well plate. Each was a final volume of 0.02 mL. The assay plates were incubated at room temperature with shaking for 1 hour and the affinity beads were washed with wash buffer (1×PBS, 0.05% Tween 20). The beads were then re-suspended in elution buffer (1×PBS, 0.05% Tween 20, 0.5 μM non-biotinylated affinity ligand) and incubated at room temperature with shaking for 30 minutes. The kinase concentration in the eluates was measured by quantitative PCR.
Compound Handling: An 11-point 3-fold serial dilution of each test compound was prepared in 100% DMSO at 100-fold final test concentration and subsequently diluted to 1-fold in the assay (final DMSO concentration=1%). Most Kds were determined using a compound top concentration=30,000 nM. If the initial Kd determined was <0.5 nM (the lowest concentration tested), the measurement was repeated with a serial dilution starting at a lower top concentration.

[2] = test system: Tyk2-mediated, IFNα-induced STAT1 phosphorylation in human Kit225 T cell line; experiment: IFNα_Kit225 T Cell Assay (phosphorylated-STAT1, AlphaLISA); assay type: cell-based; settings: Kit225 cells, compound 1 hour, human recombinant IFNα 20 minutes, pSTAT1; read-out: IFN-α Kit225 (IC50)
Description: as §1, with “cells” for “cells (licensed from Professor Toshiyuki Hori, Ritsumeikan University, Japan)”, “0.5×10^5” for “1×10^5”, “HBSS,” for “Hank's Balanced Salt Solution (HBSS, Gibco),”, “IFNα (Biolegend)” for “IL-23 (R&D Systems)”, “phosphorylated-STAT1” for “phosphorylated-STAT3”, “manufacturer's” for “manufacture's”

[3] = test system: experimental autoimmune disease models (psoriasis, SLE, and IBD); settings: cited from earlier work
[4] = test system: IL-12/IL-23 and Type I IFN pathways; settings: Tokarski et al. 2015; cited from earlier work

T1 sequence (P29597 589-875 limits assumed): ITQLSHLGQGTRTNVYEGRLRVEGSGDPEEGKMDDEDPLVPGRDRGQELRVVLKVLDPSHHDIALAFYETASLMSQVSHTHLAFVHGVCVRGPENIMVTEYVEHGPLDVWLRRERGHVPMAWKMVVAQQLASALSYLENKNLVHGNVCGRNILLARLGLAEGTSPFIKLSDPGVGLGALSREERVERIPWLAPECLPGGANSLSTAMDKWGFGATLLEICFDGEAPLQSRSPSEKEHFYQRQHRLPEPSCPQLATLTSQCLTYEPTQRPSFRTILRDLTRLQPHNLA

Compound	IC50 [1] [nM]	Kd (Tyk2 JH2 Pseudokinase) [nM]	IC50 [2] [nM]	in vivo efficacy in experimental autoimmune disease models [3]	block of IL-12/IL-23 and Type I IFN pathways [4]
BMS986165	–	–	–	substantial in vivo efficacy	effectively block
CNC(=O)c1nnc(NC(=O)C2CC2)cc1Nc1cc(N2CC(OC)C2)cc(-c2ncn(C)n2)c1OC [Example A2, 6-(cyclopropanecarboxamido)-4-((2-methoxy-5-(3-methoxyazetidin-1-yl)-3-(1-methyl-1H-1,2,4-triazol-3-yl)phenyl)amino)-N-methylpyridazine-3-carboxamide]	88	0.004	50	–	–

The next lines start with results.

IC50 [1] [nM]	Kd (Tyk2 JH2 Pseudokinase) [nM]	IC50 [2] [nM]	Compound	in vivo efficacy in experimental autoimmune disease models [3]	block of IL-12/IL-23 and Type I IFN pathways [4]
9.7	0.0071	7.5	[2H]C([2H])([2H])NC(=O)c1nnc(NC(=O)C2CC2)cc1Nc1cc(N2CCC2=O)cc(-c2ncn(C)n2)c1OC [Example A3, 6-(cyclopropanecarboxamido)-4-((2-methoxy-3-(1-methyl-1H-1,2,4-triazol-3-yl)-5-(2-oxoazetidin-1-yl)phenyl)amino)-N-(methyl-d3)pyridazine-3-carboxamide]	–	–
57	0.0035	43	[2H]C([2H])([2H])NC(=O)c1nnc(NC(=O)C2CC2)cc1Nc1cc(N2CC(OC)C2)cc(-c2ncn(C)n2)c1OC [Example A1, 6-(cyclopropanecarboxamido)-4-((2-methoxy-5-(3-methoxyazetidin-1-yl)-3-(1-methyl-1H-1,2,4-triazol-3-yl)phenyl)amino)-N-(methyl-d3)pyridazine-3-carboxamide]	–	–
130	0.037	410	[2H]C([2H])([2H])NC(=O)c1nnc(NC(=O)C2CC2)cc1Nc1cc(OC2COC2)cc(-c2ncn(C)n2)c1OC [Example A4, 6-(cyclopropanecarboxamido)-4-((2-methoxy-3-(1-methyl-1H-1,2,4-triazol-3-yl)-5-(oxetan-3-yloxy)phenyl)amino)-N-(methyl-d3)pyridazine-3-carboxamide]	–	–
